Experimental data reported in patent US6900182B1, “Inositolphosphoglycan and ribose for treatment of ischaemia-reperfusion injury” (Sylus Pharmaceuticals Ltd., priority 1998, dated 2005).

Experiments:
IPG P-type = experiment: extractable IPG P-type from tissues before and after insulin (PDH phosphatase assay); assay type: in vivo, rats; conditions: 2 minutes after injection with insulin
Procedure: FIGS. 4C and 4D show the steady state concentration and the effect of insulin on extractable IPG P-type from heart and other tissues from adult male rats. […] The solid columns show results in the absence of insulin, while the hatched columns show results 2 minutes after injection with insulin. 1 unit is the amount of P-type IPG causing a 50% increase in the activity of PDH phosphatase or a 50% decrease in the activity of cAMP dependent protein kinase.
Under anoxic conditions, this is difficult since the enzyme PDH kinase is activated. The action of this enzyme is to inactivate the PDH complex, which is involved in the biosynthesis of acetyl-CoA and NADH. The NADH so generated in the reperfusion period is oxidized by the electron transport chain to generate ATP. The acetyl-CoA is a substrate for the Krebs cycle in which one glucose can be oxidized to 36 ATPs via the generation of further NADH. The action of IPG-P type mediators is to activate PDH phosphatase which counteracts the PDH kinase and allows for activation of the PDH complex.

rat heart preparations = experiment: tissue PRPP concentration of rat heart preparations in anoxic conditions; conditions: ribose added to the medium
Excerpt: Perhaps of greater significance was our observation of the decline in cellular PRPP in a range of tissues, including heart, in experimental diabetes (see Table 1).

[1] = test system: myocardial adenine nucleotides; conditions: cited from earlier work

Row | Compound | IPG P-type activity recovered from tissue upon insulin infusion (IPG P-type; adipose tissue) | IPG P-type activity recovered from tissue upon insulin infusion (IPG P-type; brain) | IPG P-type activity recovered from tissue upon insulin infusion (IPG P-type; heart) | IPG P-type activity recovered from tissue upon insulin infusion (IPG P-type; kidney) | IPG P-type activity recovered from tissue upon insulin infusion (IPG P-type; muscle) | tissue PRPP concentration (rat heart preparations) | restitution of myocardial adenine nucleotides ([1]; Zimmer (1980)) | global heart function ([1]; overloaded and catecholamine-stimulated heart and infarcted heart rat models, Zimmer (1996)) | normalisation of depressed heart function ([1]; rats, Zimmer (1983))
1 | insulin | decreased activity | decreased activity | decreased activity | increase in activity | increase in activity |  |  |  | 
2 | O=C[C@H](O)[C@H](O)[C@H](O)CO [ribose] |  |  |  |  |  | partially restored | accelerated | improvement in global heart function | accelerated
